From patent publication US8613950B2, “Pharmaceutical forms with improved pharmacokinetic properties” (Bayer Intellectual Property GmbH, priority 2005, dated 2013)
Counter-ions that a name gives are not always drawn.

Columns and labels:
[1] = Solubility of the vardenafil form employed in 10 ml of physiological saline at 25° C.; assay type: physicochemical
Text: Accordingly, the present invention provides a vardenafil-comprising drug formulation, which is characterized in that the solubility of the form of vardenafil employed in a small amount of aqueous liquid is sufficiently high and the dissolution rate of the formulation disintegrating in the mouth is sufficiently rapid.

[2] = cited from earlier work

SMILES | amount of the active compound form that dissolves in 10 ml of physiological saline ([1]; 10 ml physiological saline, amount offered = tablet dose corresponding to 10 mg of vardenafil, hydrochloride trihydrate) | dissolved amount expressed as vardenafil ([1]; 10 ml physiological saline, dose 11.85 mg vardenafil hydrochloride trihydrate) [mg] | share of the active compound employed that dissolves in 10 ml of physiological saline ([1]; dose 5.93 mg vardenafil hydrochloride trihydrate (5 mg vardenafil)) [%] | share of the dose of the active compound employed that dissolves in 10 ml of physiological saline ([1]; dose corresponding to 10 mg of vardenafil, hydrochloride trihydrate) [%] | bioavailability ([2]; known property of vardenafil, oral) | time after administration at which the rapid decrease in the plasma concentration occurs ([2]; oral administration of vardenafil)
CCCc1nc(C)c2c(=O)[nH]c(-c3cc(S(=O)(=O)N4CCN(CC)CC4)ccc3OCC)nn12 [vardenafil hydrochloride trihydrate] | about 10.4 mg | 8.8 | 91 | 88 | – | –
CCCc1nc(C)c2c(=O)[nH]c(-c3cc(S(=O)(=O)N4CCN(CC)CC4)ccc3OCC)nn12 [vardenafil] | – | – | – | – | about 14% | about 1 hour
